Measurements published in ChEMBL document CHEMBL5120770, “Sarubicinols A-C, Cytotoxic Benzoxazoles from a Streptomyces” (J Nat Prod, 2022).

What was measured:
Assay type in all cases: functional, cell-based
HepG2 = assay: Cytotoxicity against human HepG2 cells assessed as cell growth inhibition incubated for 72 hrs by CCK8 assay; details: HepG2, 72 h
A549 = assay: Cytotoxicity against human A549 cells assessed as cell growth inhibition incubated for 72 hrs by CCK8 assay; details: A549, 72 h
HCT-116 = assay: Cytotoxicity against human HCT-116 cells assessed as cell growth inhibition incubated for 72 hrs by CCK8 assay; details: HCT-116, 72 h
4T1 = assay: Cytotoxicity against mouse 4T1 cells assessed as cell growth inhibition incubated for 72 hrs by CCK8 assay; details: 4T1, 72 h

SMILES | IC50 (HepG2) [µM] | IC50 (A549) [µM] | IC50 (HCT-116) [µM] | IC50 (4T1) [µM]
CC(=O)c1cccc2c1C(=O)C(N)=C(C(N)=O)C2=O | 6.3 | 13.5 | 14.8 | 7.6
C[C@H]1O[C@@H]2C[C@@H](O)[C@@]1(O)c1c2c(O)c(C(N)=O)c2nc([C@@H](O)[C@@H](O)CO)oc12 | 5.6 | 4.8 | 4.4 | 4.3
CC(O)c1cccc2c1C(=O)C(N)=C(C(N)=O)C2=O (stereo unspecified) | 1.9 | 0.9 | 2.1 | 1.3
NC(=O)C1=C(N)C(=O)c2c(O)cccc2C1=O | 8.9 | 8.4 | 11.6 | 14.7
C[C@H]1O[C@@H]2C[C@@H](O)[C@@]1(O)C1=C2C(=O)C(C(N)=O)=C(N)C1=O | 1.2 | 1.4 | 0.7 | 0.9
C[C@H]1O[C@@H]2C[C@@H](O)[C@@]1(O)c1c2c(O)c(C(N)=O)c2ncoc12 | 12.4 | 7.2 | 6.8 | 5.7
C[C@H]1O[C@@H]2C[C@@H](O)[C@@]1(O)c1c2c(O)c(C(N)=O)c2nc([C@@H](O)CO)oc12 | 8.9 | 6.4 | 5.6 | 4.8
COc1cccc2c1C(=O)c1c(O)c3c(c(O)c1C2=O)C[C@@](O)(C(=O)CO)C[C@@H]3O[C@H]1C[C@H](N)[C@H](O)[C@H](C)O1 [DOXORUBICIN] | 0.13 |  | 0.08 | 0.09
